We go through 2 compounds from patent publication US20110105389A1 (priority 2009, published 2011).

Series [1] has as its target T1, ghrelin receptor (HEK-GHSR1 stable cells) (Homo sapiens, UniProt Q92847).
T1 construct: expressed in transfected cells
As to the kind of experiment: Ghrelin receptor inverse agonist assay (HTRF IP-one), Method B4. The format is cell-based. In outline:
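HEK cells stably expressing GHSR1, seeded at 100 000 cells/well overnight, exposed to compound for 30 min at 37° C. Cells then lysed and IP1 accumulation measured by HTRF (d2 plus anti-IP1 cryptate, 1 h at room temp). Wells lacking d2 served as negative control.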

Series [2] can be described thus: Plasma protein binding (equilibrium dialysis), Method B5. The note with it: human plasma, 60 min at 37° C., typically 10 μM. Format: in vitro ADME. (In general: In equilibrium dialysis free small molecules cross a membrane that holds back macromolecules.)
Series [3] can be described thus: Pharmacokinetic analysis (intravenous and oral), Method B9. Format: in vivo. The settings on record: plasma, Table 10b; for clearance / half-life: 2 mg/mL intravenous typically employed. Put shortly: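 Compound concentration was typically 2 mg/mL for intravenous and 8 mg/mL for oral dosing. PK parameters such as elimination half-life and total plasma clearance were derived.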

The test system of series [4] is rat stomach fundus strips. As to the kind of experiment: Ex-vivo potency evaluation on the rat stomach fundus (inhibition of ghrelin-induced contractility), Method B10. The note with it: EFS. Put shortly:
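Male Wistar rat fundus strips in Krebs at 37 °C (5% CO2 in O2), 1.5 g resting tension, were subjected to EFS (0.5 ms pulses, 5 Hz, 70 V, 30 s every 3 min) with isometric tension recording. Responses were expressed as % of mean pre-drug EFS responses; IC50 for inhibiting ghrelin-induced contractility was determined.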

The target in series [5] is CYP2D6 (Homo sapiens, UniProt P10635). The series can be described thus: biochemical.
CYP2D6, sequence (P10635 whole entry): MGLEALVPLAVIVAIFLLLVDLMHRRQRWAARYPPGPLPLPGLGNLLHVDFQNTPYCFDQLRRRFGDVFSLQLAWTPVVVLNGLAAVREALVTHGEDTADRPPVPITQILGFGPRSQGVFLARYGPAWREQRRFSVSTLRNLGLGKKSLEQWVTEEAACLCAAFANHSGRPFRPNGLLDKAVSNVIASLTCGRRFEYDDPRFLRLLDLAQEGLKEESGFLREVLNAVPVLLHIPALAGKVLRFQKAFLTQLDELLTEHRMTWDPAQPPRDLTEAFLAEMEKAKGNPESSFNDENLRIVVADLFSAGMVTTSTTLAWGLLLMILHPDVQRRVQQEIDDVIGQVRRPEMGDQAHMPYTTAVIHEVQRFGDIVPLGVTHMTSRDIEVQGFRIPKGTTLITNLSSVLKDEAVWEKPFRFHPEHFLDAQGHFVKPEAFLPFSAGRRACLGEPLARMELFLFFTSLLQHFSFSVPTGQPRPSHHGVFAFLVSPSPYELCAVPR
Series [6] addresses CYP3A4 (Homo sapiens, UniProt P08684). As to the kind of experiment: biochemical.

As a reminder, the IC50 is the concentration that inhibits the measured activity by half. A low value points to inhibition by little substance. Broadly, the fraction unbound is free concentration divided by total concentration. Read a low fraction unbound as extensive binding. The term bioavailability denotes the share of a dose that reaches the circulation, judged against a reference dose that is usually intravenous. High values mean much systemic uptake, low ones little systemic uptake. What is called half-life is how long it takes for the measured level to halve. High values mean slow loss, low ones fast loss.

T1 sequence (Q92847 whole entry): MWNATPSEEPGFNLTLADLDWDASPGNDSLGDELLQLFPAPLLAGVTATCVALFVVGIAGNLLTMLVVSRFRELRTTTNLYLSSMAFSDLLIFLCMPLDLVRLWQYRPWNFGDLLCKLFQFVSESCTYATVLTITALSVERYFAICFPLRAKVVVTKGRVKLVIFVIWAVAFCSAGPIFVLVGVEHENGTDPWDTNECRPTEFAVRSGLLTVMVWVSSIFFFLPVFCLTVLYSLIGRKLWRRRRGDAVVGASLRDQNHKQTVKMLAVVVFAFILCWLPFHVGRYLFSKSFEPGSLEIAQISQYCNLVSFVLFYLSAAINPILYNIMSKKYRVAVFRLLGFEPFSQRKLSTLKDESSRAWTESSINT
CYP3A4, sequence (P08684 whole entry): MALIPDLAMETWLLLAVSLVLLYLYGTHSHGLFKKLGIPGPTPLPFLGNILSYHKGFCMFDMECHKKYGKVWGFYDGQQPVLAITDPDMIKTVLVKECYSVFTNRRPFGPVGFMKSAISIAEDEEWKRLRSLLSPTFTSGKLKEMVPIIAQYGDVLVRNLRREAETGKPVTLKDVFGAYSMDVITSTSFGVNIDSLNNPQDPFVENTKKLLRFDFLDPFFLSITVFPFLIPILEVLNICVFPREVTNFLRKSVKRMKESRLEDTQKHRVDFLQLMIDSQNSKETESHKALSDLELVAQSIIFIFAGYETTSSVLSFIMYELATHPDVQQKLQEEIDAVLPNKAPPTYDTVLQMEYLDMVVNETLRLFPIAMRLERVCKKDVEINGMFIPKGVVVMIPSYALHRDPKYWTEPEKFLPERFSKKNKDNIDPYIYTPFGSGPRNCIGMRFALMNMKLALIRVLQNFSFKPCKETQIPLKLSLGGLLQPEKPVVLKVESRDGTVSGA

Turning to `CC(O)[C@H]1C(=O)N[C@H](Cc2ccccc2)C(=O)NCC#Cc2c(F)cccc2OCCN[C@@H](C2(C)CC2)C(=O)N1C` (stereo partly drawn) [Compound 1876], the concentration for half-maximal inhibition (IC50) was 0.05 to 0.1 µM in series [1], 0.06 µM in series [4], 23.1 µM in series [5] and 8.5 µM in series [6]. In series [2], this compound gave a fraction unbound at 60 min, 10 μM of 0.05. The compound further registered a bioavailability in series [3] (2 mg/mL intravenous and 8 mg/mL oral typically employed) of 54 ± 19%. This compound yielded a clearance in series [3] of 28 ± 8 mL/min/kg. In series [3], this compound yielded a half-life of 2.65 ± 0.267 h.

With `CC(O)[C@H]1C(=O)N[C@H](Cc2ccccc2)C(=O)NCC#Cc2ccccc2OCCN[C@@H](C2(C)CC2)C(=O)N1C` (stereo partly drawn) [Compound 1878], the half-maximal inhibitory concentration (IC50) is 0.01 to 0.05 µM in series [1], 0.03 µM in series [4], 45.3 µM in series [5] and 11.6 µM in series [6]. In series [2], this compound showed an unbound share (fraction unbound) at 60 min, 10 μM of 0.127. For the same compound, the clearance in series [3] was 35 ± 1 mL/min/kg. The compound further gave a half-life in series [3] of 2.07 ± 0.317 h.
